Assay results from the NIST ThermoML archive (doi:10.1007/s10765-011-0995-x).

Assays:
[1] = refractive index (Na D-line) (dimensionless); xn = mol fraction of the nth substance listed; settings: 101 kPa, Liquid, Standard Abbe refractometry
[2] = xn = mol fraction of the nth substance listed; settings: 101 kPa, Liquid; for speed of sound: Pulse-echo method

Cc1ccccc1Cl [2-chlorotoluene] + CCCCCCCCCCO
Settings | mass density, [2] [kg/m3] | refractive index, [1] | speed of sound, [2] [m/s] | viscosity, [2] [mPa·s]
298.15 K, x1 = 0.0734 | 838.4 | 1.4377 | 1373.9 | 10
298.15 K, x1 = 0.1537 | 852.15 | 1.4413 | 1366.5 | 8.277
298.15 K, x1 = 0.2064 | 861.61 | 1.444 | 1361.3 | 7.283
298.15 K, x1 = 0.2747 | 874.4 | 1.4479 | 1354.2 | 6.13
298.15 K, x1 = 0.345 | 888.32 | 1.4524 | 1346.6 | 5.101
298.15 K, x1 = 0.4107 | 902.06 | 1.4569 | 1339.4 | 4.289
298.15 K, x1 = 0.489 | 919.52 | 1.4628 | 1330.9 | 3.477
298.15 K, x1 = 0.5555 | 935.39 | 1.4685 | 1323.8 | 2.906
298.15 K, x1 = 0.6158 | 950.72 | 1.4741 | 1317.6 | 2.468
298.15 K, x1 = 0.6813 | 968.52 | 1.4806 | 1311.5 | 2.075
298.15 K, x1 = 0.7475 | 987.82 | 1.4878 | 1306 | 1.742
298.15 K, x1 = 0.8205 | 1010.87 | 1.4966 | 1301.2 | 1.446
298.15 K, x1 = 0.884 | 1032.61 | 1.505 | 1298.7 | 1.235
298.15 K, x1 = 0.9469 | 1056.04 | 1.514 | 1298.5 | 1.062
298.15 K, x1 = 1 | 1077.41 | 1.5219 | 1301.2 | 0.943
303.15 K, x1 = 0.0734 | 834.73 | 1.4359 | 1358.4 | 8.289
303.15 K, x1 = 0.1537 | 848.3 | 1.4394 | 1350.5 | 6.862
303.15 K, x1 = 0.2064 | 857.65 | 1.4423 | 1344.9 | 6.042
303.15 K, x1 = 0.2747 | 870.31 | 1.4462 | 1337.3 | 5.103
303.15 K, x1 = 0.345 | 884.08 | 1.4505 | 1329.3 | 4.266
303.15 K, x1 = 0.4107 | 897.72 | 1.4549 | 1321.7 | 3.603
303.15 K, x1 = 0.489 | 915.05 | 1.4608 | 1312.7 | 2.952
303.15 K, x1 = 0.5555 | 930.83 | 1.4664 | 1305.2 | 2.486
303.15 K, x1 = 0.6158 | 946.09 | 1.4719 | 1298.8 | 2.133
303.15 K, x1 = 0.6813 | 963.84 | 1.4784 | 1292.5 | 1.806
303.15 K, x1 = 0.7475 | 983.1 | 1.4855 | 1286.9 | 1.538
303.15 K, x1 = 0.8205 | 1006.13 | 1.4941 | 1282.3 | 1.294
303.15 K, x1 = 0.884 | 1027.9 | 1.5023 | 1280 | 1.124
303.15 K, x1 = 0.9469 | 1051.38 | 1.5111 | 1280.6 | 0.984
303.15 K, x1 = 1 | 1072.83 | 1.5189 | 1284.1 | 0.885
308.15 K, x1 = 0.0734 | 831.1 | 1.4339 | 1339.3 | 6.889
308.15 K, x1 = 0.1537 | 844.55 | 1.4378 | 1330.9 | 5.734
308.15 K, x1 = 0.2064 | 853.84 | 1.4406 | 1324.9 | 5.078
308.15 K, x1 = 0.2747 | 866.4 | 1.4445 | 1316.8 | 4.313
308.15 K, x1 = 0.345 | 880.08 | 1.4489 | 1308.2 | 3.637
308.15 K, x1 = 0.4107 | 893.62 | 1.4534 | 1300 | 3.08
308.15 K, x1 = 0.489 | 910.82 | 1.4592 | 1290.6 | 2.528
308.15 K, x1 = 0.5555 | 926.51 | 1.4648 | 1283.1 | 2.134
308.15 K, x1 = 0.6158 | 941.68 | 1.4702 | 1276.7 | 1.837
308.15 K, x1 = 0.6813 | 959.32 | 1.4767 | 1270.8 | 1.566
308.15 K, x1 = 0.7475 | 978.5 | 1.4839 | 1266.1 | 1.338
308.15 K, x1 = 0.8205 | 1001.49 | 1.4924 | 1262.5 | 1.135
308.15 K, x1 = 0.884 | 1023.23 | 1.5005 | 1261.6 | 0.995
308.15 K, x1 = 0.9469 | 1046.71 | 1.5092 | 1262.2 | 0.879
308.15 K, x1 = 1 | 1068.24 | 1.5169 | 1266.1 | 0.805

Cc1ccc(Cl)cc1 [4-chlorotoluene] + CCCCCCCCCCO
Settings | mass density, [2] [kg/m3] | refractive index, [1] | speed of sound, [2] [m/s] | viscosity, [2] [mPa·s]
298.15 K, x1 = 0.0718 | 837.82 | 1.4376 | 1373.1 | 9.725
298.15 K, x1 = 0.1353 | 848.32 | 1.4405 | 1366.4 | 8.154
298.15 K, x1 = 0.1976 | 859.01 | 1.4437 | 1359.4 | 6.842
298.15 K, x1 = 0.2703 | 872.09 | 1.4477 | 1350.9 | 5.561
298.15 K, x1 = 0.341 | 885.46 | 1.4519 | 1342.3 | 4.546
298.15 K, x1 = 0.4103 | 899.31 | 1.4566 | 1333.9 | 3.733
298.15 K, x1 = 0.482 | 914.52 | 1.4618 | 1325 | 3.045
298.15 K, x1 = 0.5531 | 930.57 | 1.4676 | 1316.5 | 2.495
298.15 K, x1 = 0.6234 | 947.55 | 1.4738 | 1308.6 | 2.058
298.15 K, x1 = 0.7045 | 968.72 | 1.4818 | 1300.2 | 1.654
298.15 K, x1 = 0.7497 | 981.35 | 1.4866 | 1296.1 | 1.472
298.15 K, x1 = 0.8196 | 1002.21 | 1.4947 | 1291 | 1.239
298.15 K, x1 = 0.8907 | 1025.23 | 1.5035 | 1288 | 1.047
298.15 K, x1 = 0.9556 | 1048.23 | 1.5124 | 1287.5 | 0.907
298.15 K, x1 = 1 | 1065.11 | 1.5188 | 1289.1 | 0.828
303.15 K, x1 = 0.0718 | 834.11 | 1.4357 | 1357.3 | 8.053
303.15 K, x1 = 0.1353 | 844.43 | 1.4387 | 1350.1 | 6.766
303.15 K, x1 = 0.1976 | 854.95 | 1.4418 | 1342.7 | 5.705
303.15 K, x1 = 0.2703 | 867.83 | 1.4458 | 1333.7 | 4.658
303.15 K, x1 = 0.341 | 881.03 | 1.4501 | 1324.7 | 3.825
303.15 K, x1 = 0.4103 | 894.71 | 1.4547 | 1315.9 | 3.162
303.15 K, x1 = 0.482 | 909.75 | 1.46 | 1307 | 2.608
303.15 K, x1 = 0.5531 | 925.66 | 1.4657 | 1298.4 | 2.157
303.15 K, x1 = 0.6234 | 942.5 | 1.4719 | 1290.5 | 1.798
303.15 K, x1 = 0.7045 | 963.53 | 1.4798 | 1282.3 | 1.472
303.15 K, x1 = 0.7497 | 976.09 | 1.4846 | 1278.3 | 1.325
303.15 K, x1 = 0.8196 | 996.85 | 1.4926 | 1273 | 1.134
303.15 K, x1 = 0.8907 | 1019.78 | 1.5015 | 1269.5 | 0.972
303.15 K, x1 = 0.9556 | 1042.69 | 1.5104 | 1269.1 | 0.85
303.15 K, x1 = 1 | 1059.51 | 1.5166 | 1271 | 0.784
308.15 K, x1 = 0.0718 | 830.35 | 1.4337 | 1338.2 | 6.713
308.15 K, x1 = 0.1353 | 840.48 | 1.4367 | 1330.8 | 5.652
308.15 K, x1 = 0.1976 | 850.84 | 1.4398 | 1323.1 | 4.769
308.15 K, x1 = 0.2703 | 863.56 | 1.4439 | 1313.8 | 3.909
308.15 K, x1 = 0.341 | 876.62 | 1.4481 | 1304.8 | 3.23
308.15 K, x1 = 0.4103 | 890.19 | 1.4527 | 1295.9 | 2.678
308.15 K, x1 = 0.482 | 905.12 | 1.458 | 1286.9 | 2.224
308.15 K, x1 = 0.5531 | 920.91 | 1.4637 | 1278.3 | 1.851
308.15 K, x1 = 0.6234 | 937.62 | 1.4698 | 1270.5 | 1.558
308.15 K, x1 = 0.7045 | 958.46 | 1.4776 | 1262.5 | 1.289
308.15 K, x1 = 0.7497 | 970.92 | 1.4824 | 1258.5 | 1.166
308.15 K, x1 = 0.8196 | 991.5 | 1.4902 | 1253.9 | 1.008
308.15 K, x1 = 0.8907 | 1014.28 | 1.499 | 1250.7 | 0.875
308.15 K, x1 = 0.9556 | 1037.1 | 1.5078 | 1251 | 0.781
308.15 K, x1 = 1 | 1053.9 | 1.5138 | 1253.1 | 0.73
